Source: ChEMBL document CHEMBL1130222, “Induction of the estrogen specific mitogenic response of MCF-7 cells by selected analogues of estradiol-17 beta: a 3D QSAR study” (J Med Chem, 1997)

Legend:
MCF7 = experiment: cells; conditions: Homo sapiens
Description: Growth response in cultures of MCF-7 (human breast cancer cell line) cells

[1] = target: Estrogen receptor (Homo sapiens) (UniProt Q92731+P03372)
Description: Estrogen receptor (ER) binding affinity

Structure (SMILES) | EC50 (MCF7) | Ka [1]
C[C@]12CC[C@H]3C(=CCc4cc(O)ccc43)[C@@H]1CC[C@@H]2O | 0.00154 nM | –
C[C@]12CC[C@H]3[C@H](CC=C4C[C@@H](O)CC[C@@]43C)[C@@H]1CC[C@@H]2O | 1.41 nM | 2.7e+07 M⁻¹
C[C@]12CCc3c(ccc4cc(O)ccc34)[C@@H]1CC[C@@H]2O | 0.0125 nM | 1.52e+09 M⁻¹
C[C@]12CC[C@@H]3c4ccc(O)cc4C=C[C@@H]3[C@@H]1CC[C@@H]2O | 0.00419 nM | –
C[C@]12CC[C@@H]3c4ccc(O)cc4[C@@H](O)CC3[C@@H]1CC[C@@H]2O (single isomer, unassigned) | 0.186 nM | 8.88e+07 M⁻¹
C[C@]12C[C@H](O)[C@@H]3c4ccc(O)cc4CCC3[C@@H]1CC[C@@H]2O (single isomer, unassigned) | 0.0163 nM | 6.22e+07 M⁻¹
C[C@]12CC[C@@H]3c4ccc([N+](=O)[O-])cc4CCC3[C@@H]1CC[C@@H]2O (single isomer, unassigned) | 2.16 nM | 7.77e+06 M⁻¹
C[C@]12CC[C@@H]3c4cc([N+](=O)[O-])ccc4CCC3[C@@H]1CC[C@@H]2O (single isomer, unassigned) | 29.3 nM | < 1.85e+06 M⁻¹
C[C@]12CC[C@@H]3c4c(O)cccc4CCC3[C@@H]1CC[C@@H]2O (single isomer, unassigned) | 1.59 nM | 1.8e+07 M⁻¹
C[C@]12CC[C@@H]3c4cccc([N+](=O)[O-])c4CCC3[C@@H]1CC[C@@H]2O (single isomer, unassigned) | 34.2 nM | < 1.85e+06 M⁻¹
C[C@]12CC[C@@H]3c4ccc(O)c(N)c4CCC3[C@@H]1CC[C@@H]2O (single isomer, unassigned) | 0.346 nM | 2.11e+08 M⁻¹
C[C@]12CC[C@@H]3c4ccc(O)cc4CCC3[C@@H]1C[C@@H](O)C2 (single isomer, unassigned) | 0.237 nM | 2.97e+09 M⁻¹
C[C@]12CC[C@@H]3c4ccc(O)cc4CC(=O)C3[C@@H]1CC[C@@H]2O (single isomer, unassigned) | 0.016 nM | 3.39e+09 M⁻¹
C[C@]12CC[C@@H]3c4cccc(I)c4CCC3[C@@H]1CC[C@@H]2O (single isomer, unassigned) | 1.67 nM | 4.44e+06 M⁻¹
C[C@]12CC[C@@H]3c4ccc(O)cc4C[C@@H](O)C3[C@@H]1CC[C@@H]2O (single isomer, unassigned) | 0.153 nM | 6.3e+07 M⁻¹
C[C@]12CC[C@@H]3c4cc(N)ccc4CCC3[C@@H]1CC[C@@H]2O (single isomer, unassigned) | 0.127 nM | 1.45e+08 M⁻¹
C[C@]12CC[C@@H]3c4cccc(O)c4CCC3[C@@H]1CC[C@@H]2O (single isomer, unassigned) | 4.76 nM | 2.5e+08 M⁻¹
C[C@]12CC[C@@H]3c4cc([N+](=O)[O-])c(O)cc4CCC3[C@@H]1CC[C@@H]2O (single isomer, unassigned) | 33.5 nM | 3.7e+06 M⁻¹
C[C@]12CC[C@@H]3c4c(N)cccc4CCC3[C@@H]1CC[C@@H]2O (single isomer, unassigned) | 28.4 nM | < 1.85e+06 M⁻¹

Structure (SMILES) | EC50 (MCF7) | Ka [1]
C[C@]12CC[C@@H]3c4ccc(O)cc4C[C@H](O)C3[C@@H]1CC[C@@H]2O (single isomer, unassigned) | 0.0122 nM | 3.66e+09 M⁻¹
C[C@]12C[C@@H](O)[C@@H]3c4ccc(O)cc4CCC3[C@@H]1CC[C@@H]2O (single isomer, unassigned) | 0.0365 nM | 1.15e+07 M⁻¹
C[C@]12CC[C@@H]3c4ccc(N)cc4CCC3[C@@H]1CC[C@@H]2O (single isomer, unassigned) | 1.5 nM | 2.78e+11 M⁻¹
C[C@@]12CCC[C@H]1C1CCc3ccccc3[C@H]1CC2 (single isomer, unassigned) | 201 nM | < 1.8e+06 M⁻¹
C[C@]12CC[C@@H]3c4ccc(O)c([N+](=O)[O-])c4CCC3[C@@H]1CC[C@@H]2O (single isomer, unassigned) | 0.9 nM | 1.44e+08 M⁻¹
C[C@]12CC[C@@H]3c4cc(O)ccc4CCC3[C@@H]1CC[C@@H]2O (single isomer, unassigned) | 0.033 nM | 2.6e+09 M⁻¹
C[C@]12CC[C@@H]3c4ccc(I)cc4CCC3[C@@H]1CC[C@@H]2O (single isomer, unassigned) | 0.174 nM | 1.96e+07 M⁻¹
C[C@]12CC[C@@H]3c4cc(N)c(O)cc4CCC3[C@@H]1CC[C@@H]2O (single isomer, unassigned) | 0.558 nM | 1.33e+08 M⁻¹
C[C@]12CC(=O)[C@@H]3c4ccc(O)cc4CCC3[C@@H]1CC[C@@H]2O (single isomer, unassigned) | 8.97 nM | 3.33e+06 M⁻¹
C[C@]12CC[C@@H]3c4c(cccc4[N+](=O)[O-])CCC3[C@@H]1CC[C@@H]2O (single isomer, unassigned) | 60.4 nM | < 1.85e+06 M⁻¹
C[C@]12CC[C@@H]3c4cc(I)ccc4CCC3[C@@H]1CC[C@@H]2O (single isomer, unassigned) | 1.7 nM | 3.33e+06 M⁻¹
C[C@]12CC[C@@H]3c4cccc(N)c4CCC3[C@@H]1CC[C@@H]2O (single isomer, unassigned) | 2 nM | 2.15e+07 M⁻¹
C[C@]12CC[C@@H]3c4ccccc4CCC3[C@@H]1CC[C@@H]2O (single isomer, unassigned) | 0.316 nM | 4.1e+08 M⁻¹
C[C@@]12CCC[C@H]1C1CCc3cc(O)ccc3[C@H]1CC2 (single isomer, unassigned) | 0.118 nM | 2.93e+09 M⁻¹
C[C@]12CC[C@@H]3c4ccc(O)cc4C(=O)CC3[C@@H]1CC[C@@H]2O (single isomer, unassigned) | 0.00338 nM | 1.09e+09 M⁻¹
C[C@]12CC[C@@H]3c4ccc(O)cc4[C@H](O)CC3[C@@H]1CC[C@@H]2O (single isomer, unassigned) | 0.0571 nM | 7e+07 M⁻¹
C[C@]12CC[C@@H](O)C[C@@H]1CCC1[C@@H]2CC[C@]2(C)[C@@H](O)CC[C@@H]12 (single isomer, unassigned) [ANDROSTANDIOL] | > 10000 nM | < 1.85e+06 M⁻¹
C[C@]12CC[C@H](O)C[C@@H]1CCC1[C@@H]2CC[C@]2(C)[C@@H](O)CC[C@@H]12 (single isomer, unassigned) [ANDROSTANEDIOL] | 4.66 nM | 1.8e+07 M⁻¹
C[C@]12CC[C@@H]3c4ccc(O)cc4CCC3[C@@H]1C[C@@H](O)[C@@H]2O (single isomer, unassigned) [ESTRIOL] | 0.0483 nM | –
